This is an account of results in patent US8889672B2, “Compounds, formulations, and methods of protein kinase C inhibition” (The Regents of The University of Michigan, priority 2011, dated 2014).

Like-named read-outs stand apart in the source and are kept apart here.

By IC50 is commonly meant the concentration needed to halve the response being measured. The low end stands for greater potency, the high end for weaker potency.

The target in one series is aPKCζ (Homo sapiens (Human), UniProt Q05513). The experiment in a line: ADP Quest assay, IC50 against aPKCζ. To be noted: 500 ng/ml aPKCζ, 10 μM CREBtide, 10 μM ATP.
A further series relates to HEK293pNF-kBluc cells. The experiment in a line: TNF-induced NF-kB activation assay (luciferase reporter). To be noted: 3 h pre-treatment, 5 ng/mL TNF for 5 h. Type of series: cell-based, human. The method, then:
HEK293pNF-kBluc cells (Panomics, Fremont, Calif., USA) were cultured according to the manufacturer's protocol. Cells were seeded onto 96-well plates in phenol red-free DMEM containing high glucose (Sigma) for 24 hours prior to assay. Cells were exposed to a candidate compound for three hours. Following treatment, cells were stimulated with 5 ng/ml TNF (R&D Systems) for five hours. Cells were then lysed with Bright-Glo™ luciferase reagent (Promega, Madison, Wis., USA) and luminescent values were obtained using a GloMax® instrument using standard protocol for Bright-Glo™ luciferase reagent. Values were background corrected and normalized to TNF treatment alone and represented as % NF-kB activity.
Human embryonic kidney cells containing a luciferase reporter gene for NF-kB activation (HEK293pNF-kBluc) were treated with candidate compounds described herein for three hours. The cells were then stimulated with TNF for five hours and the inhibition of NF-kB was evaluated. After pre-treatment with 100 nM of aPKC inhibitor, NF-kB activity was reduced by as much as 80%. […] Other compounds tested inhibited TNF-induced NF-kB activity, but to a lesser degree.
(In general: Reporter assays use an easily measured gene product as a stand-in for the process of interest.)

Series [1] relates to BREC monolayer. Briefly: VEGF-induced retinal endothelial permeability assay (70 kDa RITC-Dextran). In kind it is cell-based, bovine. The following applies: pretreatment 30 min, 30 or 100 nM PKCζl-diCl, 30 or 300 nM PKCl-diMeO; 50 ng/ml VEGF. The method, then:
(§1) Primary bovine retinal endothelial cells (BREC) were isolated from fresh bovine eye tissue. Human retinal endothelial cells (HREC) were from Cell Systems (Krikland, Wash., USA). Cells were grown in MCDB-131 complete media (Sigma-Aldrich, Mo., USA) containing 10% fetal bovine serum, 10 ng/ml epidermal growth factor, 200 μg/ml Endogro (Vec Technologies, Rensselaer, N.Y., USA), 90 μg/ml heparin, antibiotics and antimycotics. For experimentation, cells were grown to confluence and serum starved for 24 hours with 100 nM hydrocortisone and treated with VEGF at 50 ng/ml where indicated. All experiments were performed with cells at passage 5-8.
(§2) RECs were plated onto 0.4 μm Transwell filters (Corning Costar, Acton, Mass., USA) and grown to confluence. Following treatments, 70 kDa rhodamine β isothiocyanate-dextran (RITC-Dextran) was added to the apical chamber and samples were collected from the basolateral chamber at 30 minute intervals for 4 hours. The rate of flux of the substrate, Po, was calculated over the 4 hour time course from the following formula. Po=[FL/Δt)VA]/(FAA) where Po is in centimeters per second; FL is basolateral fluorescence; FA is apical fluorescence; Δt is change in time; A is the surface area of the filter (in square centimeters); and VA is the volume of the basolateral chamber (in cubic centimeters). […]

For another series, the system named is PKC isoforms. Briefly: PKC class specificity from radio-labeled kinase assay. Type of series: biochemical, human. The text has this:
(§3) PKCldiMeO and PKCζl-diCl were screened against other PKC isoforms to determine class specificity using a radio-labeled kinase assay at the Kmapp for ATP. […] PKCζl-diCl was 5-10 fold more specific towards the atypical PKC isoforms compared to the classical PKCs (α, β) and over 10-20 fold more specific compared to the novel class (δ,ε).

Series [2] deals with retinal vasculature tight junction complex (occludin). Briefly: Occludin immuno-labeling of retinal flat mounts after intra-vitreal VEGF. To be noted: intra-vitreal co-injection with VEGF.
Series [3] relates to occludin and ZO-1 border staining in BREC. Briefly: Tight junction protein localization after VEGF (immunocytochemistry, confocal). In kind it is cell-based, bovine. The following applies: 100 nM, 30 min before 50 ng/ml VEGF for 60 min. The method, then: VEGF treatment of retinal endothelial cells and diabetes leads to a breakdown of the tight junction complex and internalization of tight junction proteins occludin and ZO-1. The ability of the phenyl-thiophene derivatives to prevent the VEGF-induced reduction in tight junction border staining was examined. BREC were grown to confluence on coverslips and pretreated with 100 nM PKCζ-diCl for 30 minutes prior to treatment with 50 ng/ml VEGF for 60 minutes. Cells were fixed and stained with antibodies for ZO-1 or occludin and were visualized by confocal microscopy. VEGF decreased the border staining and continuity of ZO-1 and occludin labeling at the cell border. […] This effect on the tight junction correlated with the observed attenuation of VEGF-induced permeability.

The subject of series [4] is human retinal endothelial primary cells (HREC) monolayers. The experiment in a line: Basal permeability of HREC monolayers. Type of series: cell-based. As for the experimental part: as §1, §2
For series [5], the system named is BREC monolayer. Briefly: TNF/VEGF permeability assay. In kind it is cell-based, bovine. To be noted: 30 min pretreatment, TNFα 1 hour then VEGF 30 min; for EC50: read-out: EC50 for inhibition of TNF/VEGF-induced endothelial permeability. The method, then: BREC were plated onto 0.4 μm Transwell filters (Corning Costar, Acton, Mass., USA) and grown to confluence. Following 30 minutes of pretreatment with candidate compound, cells were subjected to 5 ng/ml TNFα (R&D Systems, Minneapolis, Minn., USA) for one hour, then 50 ng/ml VEGF (R&D Systems) for 30 minutes. Following treatments, 70 kDa Rhodamine β isothiocyanate-dextran (RITC-Dextran) was added to the apical chamber, and samples were collected from the basolateral chamber at 30 minute intervals for four hours. The rate of flux of the substrate, Po, was calculated over the four-hour time course from the following formula: Po=[FL/delta(t))VA]/(FAA)
where Po is in centimeters per second; FL is basolateral fluorescence; FA is apical fluorescence; delta(t) is change in time; A is the surface area of the filter (in square centimeters); and VA is the volume of the basolateral chamber (in cubic centimeters).

The next series relates to BREC. Briefly: LIVE/Dead cell viability. The following applies: 24 and 48 hours; up to 300 nM.
A further series concerns AKT in endothelial cells. The experiment in a line: AKT, downstream mediator of PI3K signaling, in endothelial cells. Type of series: cell-based.
A further series concerns the target PKCβ (Homo sapiens (Human), UniProt P05771). Briefly: Radio-labeled kinase assay at the Kmapp for ATP. In kind it is biochemical.
Text: as §3

The next series addresses PKCα (Homo sapiens (Human), UniProt P17252). Briefly: Radio-labeled kinase assay at the Kmapp for ATP. Type of series: biochemical.
Text: as §3

The target of the next series is PKCδ (Homo sapiens (Human), UniProt Q05655). The experiment in a line: Radio-labeled kinase assay at the Kmapp for ATP. Type of series: biochemical.
Text: as §3

The next series addresses PKCε (Homo sapiens (Human), UniProt Q02156). The experiment in a line: Radio-labeled kinase assay at the Kmapp for ATP. Type of series: biochemical.
Text: as §3

Series [6] relates to 20 AGC super-family kinases. The experiment in a line: Screen of 20 AGC super-family kinases at 100 μM. In kind it is biochemical, human.
Series [7] deals with cPKC / Erk phosphorylation in endothelial cells. The experiment in a line: cPKC activity in cell culture (Erk phosphorylation, immunoblot). Type of series: cell-based. The method, then: Cells were harvested in extraction buffer containing 100 mM NaCl, 1% Triton X-100, 0.5% Sodium Deoxycholate, 0.2% SDS, 2 mM EDTA, 10 mM HEPES (pH 7.5), 1 mM sodium orthovanadate, 10 mM sodium fluoride, 10 mM sodium pyrophosphate, 1 mM benzamadine, 1 complete protease inhibitor tablet, 10 μM LR-microcystin. Following protein extraction, Western blot utilizing the NuPAGE system (Invitrogen, Carlsbad, Calif., USA) was performed. Protein content was determined using DC protein assay (BioRad, Hercules, Calif., USA) and equal amounts of protein were loaded in 4-12% Bis-Tris gradient gels. Following electrophoresis and transferring to nitrocellulose, membranes were blocked in milk with 5% Tris-buffered saline with 0.1% Tween 20. Membranes were immunoblotted using anti-Flag (Cell Signaling, Danvers, Mass., USA), anti-HA (Cell Signaling, Danvers, Mass., USA), anti-phospho ERK1/2 (Cell Signaling, Danvers, Mass., USA), anti-total ERK1/2 (Cell Signaling, Danvers, Mass., USA), anti-phospho aPKC (Cell Signaling, Danvers, Mass., USA), total PKCζ (Santa Cruz, Santa Cruz, Calif., USA), and anti-actin (Millipore, Billerica, Mass., USA) antibodies. Primary antibodies were detected by horseradish peroxidase-conjugated anti-rabbit and chemiluminescence with ECL Advance (GE Healthcare, Piscataway, N.J., USA) or anti-mouse IgG alkaline phosphatase with ECF (GE Healthcare, Piscataway, N.J., USA).
On the technique in general: In western blotting, separated proteins are transferred to a membrane and probed.

Series [8] in a line: Solubility in aqueous environments. In kind it is physicochemical.

Chain of aPKCζ (Q05513 whole entry): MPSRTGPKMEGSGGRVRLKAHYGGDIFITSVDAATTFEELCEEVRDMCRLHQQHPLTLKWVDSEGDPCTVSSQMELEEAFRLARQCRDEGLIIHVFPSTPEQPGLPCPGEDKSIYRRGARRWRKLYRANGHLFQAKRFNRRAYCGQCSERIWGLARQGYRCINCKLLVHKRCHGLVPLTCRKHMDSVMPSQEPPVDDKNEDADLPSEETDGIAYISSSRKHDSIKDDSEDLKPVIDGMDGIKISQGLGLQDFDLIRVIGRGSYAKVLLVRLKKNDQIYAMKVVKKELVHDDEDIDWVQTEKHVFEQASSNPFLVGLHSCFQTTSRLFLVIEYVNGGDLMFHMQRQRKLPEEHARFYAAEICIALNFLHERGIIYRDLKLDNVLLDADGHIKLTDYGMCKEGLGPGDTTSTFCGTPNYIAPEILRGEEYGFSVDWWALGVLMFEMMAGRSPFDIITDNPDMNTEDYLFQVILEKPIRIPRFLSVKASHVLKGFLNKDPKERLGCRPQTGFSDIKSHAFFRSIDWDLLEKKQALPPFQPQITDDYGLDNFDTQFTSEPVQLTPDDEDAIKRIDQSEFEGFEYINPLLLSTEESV
Chain of PKCε (Q02156 whole entry): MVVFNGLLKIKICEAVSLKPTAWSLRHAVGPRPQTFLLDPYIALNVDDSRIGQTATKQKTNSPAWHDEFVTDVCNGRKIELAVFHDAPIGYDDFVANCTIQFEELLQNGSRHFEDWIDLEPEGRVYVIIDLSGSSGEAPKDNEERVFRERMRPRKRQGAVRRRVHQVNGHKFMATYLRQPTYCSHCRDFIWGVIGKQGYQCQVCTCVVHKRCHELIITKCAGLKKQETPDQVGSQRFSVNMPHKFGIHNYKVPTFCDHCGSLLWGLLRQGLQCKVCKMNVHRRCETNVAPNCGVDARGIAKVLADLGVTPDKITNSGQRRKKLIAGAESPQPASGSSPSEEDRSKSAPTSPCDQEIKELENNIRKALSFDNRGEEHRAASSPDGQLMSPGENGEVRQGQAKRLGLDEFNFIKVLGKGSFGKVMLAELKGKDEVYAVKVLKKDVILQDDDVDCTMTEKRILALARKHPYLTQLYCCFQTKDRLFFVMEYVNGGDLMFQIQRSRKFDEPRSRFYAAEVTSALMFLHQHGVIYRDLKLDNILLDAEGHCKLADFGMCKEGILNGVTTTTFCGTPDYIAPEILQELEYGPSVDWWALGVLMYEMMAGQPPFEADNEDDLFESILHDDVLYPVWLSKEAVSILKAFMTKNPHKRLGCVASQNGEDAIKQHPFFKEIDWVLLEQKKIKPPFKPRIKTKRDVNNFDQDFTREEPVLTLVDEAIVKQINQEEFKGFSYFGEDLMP
Chain of PKCδ (Q05655 whole entry): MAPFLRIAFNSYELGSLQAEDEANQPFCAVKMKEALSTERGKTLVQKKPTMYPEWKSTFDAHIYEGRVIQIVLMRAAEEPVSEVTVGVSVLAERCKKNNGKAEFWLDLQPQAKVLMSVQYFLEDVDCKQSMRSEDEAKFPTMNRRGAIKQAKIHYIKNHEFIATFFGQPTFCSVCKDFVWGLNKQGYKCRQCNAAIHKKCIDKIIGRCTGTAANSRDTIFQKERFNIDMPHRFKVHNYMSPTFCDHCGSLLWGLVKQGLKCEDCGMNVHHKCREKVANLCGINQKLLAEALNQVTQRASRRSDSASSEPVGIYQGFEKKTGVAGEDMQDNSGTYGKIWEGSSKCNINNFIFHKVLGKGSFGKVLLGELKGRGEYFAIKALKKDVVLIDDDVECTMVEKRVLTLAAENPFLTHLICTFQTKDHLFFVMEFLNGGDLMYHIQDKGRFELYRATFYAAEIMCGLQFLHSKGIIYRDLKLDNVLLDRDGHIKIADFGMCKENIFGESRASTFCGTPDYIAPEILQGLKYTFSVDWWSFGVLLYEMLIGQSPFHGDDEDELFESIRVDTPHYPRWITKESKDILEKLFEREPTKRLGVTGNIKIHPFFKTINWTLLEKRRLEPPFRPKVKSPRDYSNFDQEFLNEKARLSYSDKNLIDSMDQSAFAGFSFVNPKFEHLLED
Chain of PKCβ (P05771 whole entry): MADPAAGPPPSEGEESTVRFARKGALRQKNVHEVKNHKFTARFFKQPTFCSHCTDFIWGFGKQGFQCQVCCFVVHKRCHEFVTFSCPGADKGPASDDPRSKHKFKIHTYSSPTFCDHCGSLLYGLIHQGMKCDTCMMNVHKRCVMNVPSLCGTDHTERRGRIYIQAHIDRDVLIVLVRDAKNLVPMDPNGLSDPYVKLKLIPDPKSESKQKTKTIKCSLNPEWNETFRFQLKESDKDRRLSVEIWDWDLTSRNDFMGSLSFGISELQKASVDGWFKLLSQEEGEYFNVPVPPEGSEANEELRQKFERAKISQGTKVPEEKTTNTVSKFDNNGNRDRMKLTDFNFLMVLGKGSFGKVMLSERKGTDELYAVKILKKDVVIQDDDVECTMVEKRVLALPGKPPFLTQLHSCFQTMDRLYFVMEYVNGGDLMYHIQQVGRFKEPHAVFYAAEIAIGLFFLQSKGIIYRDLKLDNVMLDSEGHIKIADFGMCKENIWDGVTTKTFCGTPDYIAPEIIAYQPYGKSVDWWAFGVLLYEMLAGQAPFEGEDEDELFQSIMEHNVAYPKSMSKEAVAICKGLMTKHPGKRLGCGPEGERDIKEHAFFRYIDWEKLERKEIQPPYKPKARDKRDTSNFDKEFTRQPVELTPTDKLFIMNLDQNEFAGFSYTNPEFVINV

In the case of `COc1cccc(COC(=O)c2c(-c3ccc(C(N)=O)cc3)csc2N)c1` [Compound 317-120-001], the half-maximal inhibitory concentration (IC50) against aPKCζ was 6 µM.
Turning to `CCOC(=O)c1c(-c2ccc(N(C)C)cc2)csc1N` [Compound 317-080-001], the EC50 in the series on HEK293pNF-kBluc cells amounted to 0.001 µM.
For `COc1cccc(COC(=O)c2c(-c3ccc(OC)c(OC)c3)csc2N)c1` [Compound 317-052-004], in the series with HEK293pNF-kBluc cells, the EC50 came out at 0.002 µM. Besides, inhibition against aPKCζ was half-maximal at 5 µM (IC50).
As for `COc1ccc(-c2csc(N)c2C(=O)OCc2ccccc2)cc1OC` [Compound 252-036-001], the EC50 with HEK293pNF-kBluc cells was 0.001 µM. Further, the midpoint of inhibition on aPKCζ, the IC50, lay at 6 µM.
For the molecule `CCNC(=O)c1c(-c2ccc(Cl)c(Cl)c2)csc1N` [Compound 194-094-009], on aPKCζ, the midpoint of inhibition, the IC50, lay at 5 µM.
With `COc1ccc(-c2csc(N)c2C#N)cc1OC` [Compound 227-076-001], at aPKCζ, the IC50 turned out to be 7 µM.
For the molecule `CCOC(=O)c1c(-c2ccc(N)cc2)csc1N` [Compound 317-094-001], the EC50 in the series on HEK293pNF-kBluc cells amounted to 0.001 µM. Further, the IC50 against aPKCζ was 2 µM.
In the case of `CC(C)NC(=O)c1c(-c2ccc(Cl)c(Cl)c2)csc1N` [Compound 194-094-008], the half-inhibitory concentration (IC50) at aPKCζ came out at 5 µM.
For `CCNC(=O)c1c(-c2ccc(OC)c(OC)c2)csc1N` [Compound 194-074-008], the IC50 on aPKCζ is 4 µM.
Take `CC(C)OC(=O)c1c(-c2ccc(Cl)c(Cl)c2)csc1N` [PKCζl-diCl, isopropyl 2-amino-4-(3,4-dichlorophenyl)thiophene-3-carboxylate]: the VEGF-induced permeability entry with BREC monolayer [1] is “dose-dependently blocked”. Besides, in the series with PKC isoforms, the “specificity towards atypical PKC isoforms compared to the classical PKCs (α, β)” value is reported as 5-10 fold and the “specificity towards atypical PKC isoforms compared to the novel class (δ,ε)” value is given as 10-20 fold. In addition, the “occludin border staining in retinal vessels” value in series [2] is recorded as “occludin border staining was preserved”. Further, in series [3], the “VEGF-induced redistribution of occludin and ZO-1” value was “blocked the VEGF-induced redistribution of occludin and ZO-1 proteins”. In addition, in [4], the “basal permeability of HREC monolayers” value is “reducing permeability was also observed”.
The molecule `CCOC(=O)c1c(-c2ccc(NC(C)=O)cc2)csc1N` [Compound 317-056-002] showed an IC50 against aPKCζ of 6 µM.
As for `COc1ccc(-c2csc(N)c2C(=O)N2CCOCC2)cc1OC` [Compound 194-074-005], the IC50 against aPKCζ was 4 µM.
On to `CCOC(=O)c1c(-c2ccc3c(c2)OCO3)csc1N` [Compound 268-020-002], for which the EC50 in the series on HEK293pNF-kBluc cells worked out at 0.003 µM. Moreover, on aPKCζ, the IC50 came out at 2 µM. Also, in the series on BREC monolayer [5], the “TNF/VEGF-induction of BREC permeability” value is reported as “significantly reduce” and the EC50 is 0.02 µM.
For `CCOC(=O)c1c(-c2ccc(OC)cc2F)csc1N` [Compound 317-054-001], in the series with HEK293pNF-kBluc cells, the EC50 stood at 0.01 µM. Also, the midpoint of inhibition at aPKCζ, the IC50, lay at 4 µM.
Regarding `COc1ccc(-c2csc(N)c2C(=O)OC(C)C)cc1OC` [PKCl-diMeO], the VEGF-induced permeability result in the series with BREC monolayer [1] is reported as “dose-dependently blocked”. In addition, in the series on BREC, the BREC viability result was “no evidence of cell death”. Also, the EC50 worked out at 0.003 µM in the series with HEK293pNF-kBluc cells (Homo sapiens) and 0.001 µM in the series with BREC monolayer [5] (Bos taurus). The AKT signaling entry in the series with AKT in endothelial cells was “unaffected”. In addition, the IC50 was 124 µM against PKCβ, 282 µM on PKCα, 147 µM against PKCδ and above 100 µM against PKCε. Further, the “inhibitory activity towards other AGC kinases” value in series [6] is reported as “limited inhibitory activity”. The “specificity towards atypical PKC isoforms compared to the classical PKCs (α, β)” value in the series with PKC isoforms was 25-50 fold. In the series on PKC isoforms, the “specificity towards atypical PKC isoforms compared to the novel class (δ,ε)” value was determined as 25 fold. In the series with BREC monolayer [5], the “TNF/VEGF-induction of BREC permeability” value was “significantly reduce”. In series [7], the “cPKC activity in cell culture” value is recorded as “did not inhibit cPKC activity”. In addition, the Erk phosphorylation entry in series [7] (endothelial cells) was “unaffected”. The “solubility in aqueous environments” value in series [8] is listed as “improved solubility in aqueous environments”.
Take `Nc1scc(-c2ccc(Cl)c(Cl)c2)c1C(=O)N1CCOCC1` [Compound 194-094-003]: the IC50 against aPKCζ is 3 µM.
Take `COc1ccc(-c2csc(N)c2C(=O)OCc2ccccc2F)cc1OC` [Compound 317-052-001]: half-maximal inhibition against aPKCζ (IC50) was put at 7 µM.
